Measured values taken from US9873680B2 (Gilead Sciences, Inc., priority 2014, dated 2018).
Like-named read-outs stand apart in the source and are kept apart here.

Experiments:
HIV-IIIb = experiment: Test A: Antiviral Assay in MT4 Cells; type: cell-based, HIV-1; details: read-out: % inhibition at 0.2 μM (percent inhibition of virus-induced cell killing)
Summary of the method: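 Readout was CellTiter-Glo luminescence after 10 min room-temperature lysis, taken 5 days after plating at 37 °C. The 2000 MT-4 cells per well, mixed 1 h beforehand with HIV-IIIb (m.o.i. 0.003), went straight onto the diluted compound.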

[1] = Test B: Cytotoxicity Assay; type: cell-based; details: human, uninfected MT-4 cells, CellTiter-Glo
Procedure: Test B: Cytotoxicity Assay Compound cytotoxicity and the corresponding CC50 values was determined using the same protocol as described in the antiviral assay (Test A) except that uninfected cells were used.

[2] = Human immunodeficiency virus 1, MT4, 120 h, 0.2 μM drug concentration, MT-4 cells infected with HIV-IIIb, 5 days, values normalized to 100%, average over time

For `Cn1nc(NS(C)(=O)=O)c2c(Cl)ccc(-c3ccc(C#CC4(O)CCOCC4)nc3[C@H](Cc3cc(F)cc(F)c3)NC(=O)Cn3nc(C(F)F)c4c3C(F)(F)[C@@H]3C[C@H]43)c21` [Compound 40, N—((S)-1-(3-(4-chloro-1-methyl-3-(methylsulfonamido)-1H-indazol-7-yl)-6-((4-hydroxytetrahydro-2H-pyran-4-yl)ethynyl)pyridin-2-yl)-2-(3,5-difluorophenyl)ethyl)-2-((3bS,4aR)-3-(difluoromethyl)-5,5-difluoro-3b,4,4a,5-tetrahydro-1H-cyclopropa[3,4]cyclopenta[1,2-c]pyrazol-1-yl)acetamide], the inhibition at 0.2 µM (HIV-IIIb; [2]) was 96% and the CC50 at 5 days [1] was 17 µM.

`Cn1nc(NS(C)(=O)=O)c2c(Cl)ccc(-c3ccc(C#CC4(O)COC4)nc3[C@H](Cc3cc(F)cc(F)c3)NC(=O)Cn3nc(C(F)(F)F)c4c3C(F)(F)[C@@H]3C[C@H]43)c21` [Compound 38, N—((S)-1-(3-(4-chloro-1-methyl-3-(methylsulfonamido)-1H-indazol-7-yl)-6-((3-hydroxyoxetan-3-yl)ethynyl)pyridin-2-yl)-2-(3,5-difluorophenyl)ethyl)-2-((3bS,4aR)-5,5-difluoro-3-(trifluoromethyl)-3b,4,4a,5-tetrahydro-1H-cyclopropa[3,4]cyclopenta[1,2-c]pyrazol-1-yl)acetamide] gave an inhibition at 0.2 µM (HIV-IIIb; [2]) of 97% and a CC50 at 5 days [1] of 14.3 µM.

Compound `Cn1nc(NS(C)(=O)=O)c2cccc(-c3ccc(C#CC4(O)CNC4)nc3[C@H](Cc3cc(F)cc(F)c3)NC(=O)Cn3nc(C(F)(F)F)c4c3C(F)(F)[C@@H]3C[C@H]43)c21` [Compound 22C, 2-((3bS,4aR)-5,5-difluoro-3-(trifluoromethyl)-3b,4,4a,5-tetrahydro-1H-cyclopropa[3,4]cyclopenta[1,2-c]pyrazol-1-yl)-N—((S)-2-(3,5-difluorophenyl)-1-(6-((3-hydroxyazetidin-3-yl)ethynyl)-3-(1-methyl-3-(methylsulfonamido)-1H-indazol-7-yl)pyridin-2-yl)ethyl)acetamide] has an inhibition at 0.2 µM (HIV-IIIb; [2]) of 93% and a CC50 at 5 days [1] of 17.7 µM.

For `Cn1cncc1C#Cc1ccc(-c2cccc3c(NS(C)(=O)=O)nn(C)c23)c([C@H](Cc2cc(F)cc(F)c2)NC(=O)Cn2nc(C(F)(F)F)c3c2C(F)(F)[C@@H]2C[C@H]32)n1` [Compound 33, 2-((3bS,4aR)-5,5-difluoro-3-(trifluoromethyl)-3b,4,4a,5-tetrahydro-1H-cyclopropa[3,4]cyclopenta[1,2-c]pyrazol-1-yl)-N—((S)-2-(3,5-difluorophenyl)-1-(6-((1-methyl-1H-imidazol-5-yl)ethynyl)-3-(1-methyl-3-(methylsulfonamido)-1H-indazol-7-yl)pyridin-2-yl)ethyl)acetamide], the inhibition at 0.2 µM (HIV-IIIb; [2]) was 93% and the CC50 at 5 days [1] was 12.5 µM.

With `O=C(Cn1nc(C(F)(F)F)c2c1C(F)(F)[C@@H]1C[C@H]21)N[C@@H](Cc1cc(F)cc(F)c1)c1nc(C#Cc2ccc(=O)[nH]c2)ccc1-c1ccc2c(c1)C(=O)NC2` [Compound 12, 2-((3bS,4aR)-5,5-difluoro-3-(trifluoromethyl)-3b,4,4a,5-tetrahydro-1H-cyclopropa[3,4]cyclopenta[1,2-c]pyrazol-1-yl)-N—((S)-2-(3,5-difluorophenyl)-1-(6-((6-oxo-1,6-dihydropyridin-3-yl)ethynyl)-3-(3-oxoisoindolin-5-yl)pyridin-2-yl)ethyl)acetamide] the inhibition at 0.2 µM (HIV-IIIb; [2]) was 70% and the CC50 at 5 days [1] was 7.7 µM.

With `CN1CC(NC(C)(C)C#Cc2ccc(-c3ccc(Cl)c4c(NS(C)(=O)=O)nn(C)c34)c([C@H](Cc3cc(F)cc(F)c3)NC(=O)Cn3nc(C(F)(F)F)c4c3C(F)(F)[C@@H]3C[C@H]43)n2)C1` [Compound 42, N—((S)-1-(3-(4-chloro-1-methyl-3-(methylsulfonamido)-1H-indazol-7-yl)-6-(3-methyl-3-((1-methylazetidin-3-yl)amino)but-1-yn-1-yl)pyridin-2-yl)-2-(3,5-difluorophenyl)ethyl)-2-((3bS,4aR)-5,5-difluoro-3-(trifluoromethyl)-3b,4,4a,5-tetrahydro-1H-cyclopropa[3,4]cyclopenta[1,2-c]pyrazol-1-yl)acetamide] the inhibition at 0.2 µM (HIV-IIIb; [2]) was 90% and the CC50 at 5 days [1] was 2.77 µM.

`Cn1nc(NS(C)(=O)=O)c2cccc(-c3ccc(C#CC4(O)CCCC4)nc3[C@H](Cc3cc(F)cc(F)c3)NC(=O)Cn3nc(C(F)(F)F)c4c3C(F)(F)[C@@H]3C[C@H]43)c21` [Compound 37, 2-((3bS,4aR)-5,5-difluoro-3-(trifluoromethyl)-3b,4,4a,5-tetrahydro-1H-cyclopropa[3,4]cyclopenta[1,2-c]pyrazol-1-yl)-N—((S)-2-(3,5-difluorophenyl)-1-(6-((1-hydroxycyclopentyl)ethynyl)-3-(1-methyl-3-(methylsulfonamido)-1H-indazol-7-yl)pyridin-2-yl)ethyl)acetamide] gave an inhibition at 0.2 µM (HIV-IIIb; [2]) of 80% and a CC50 at 5 days [1] of 8.71 µM.

Compound `NC(=O)c1cc(-c2ccc(C#CC3(O)CC(F)(F)C3)nc2[C@H](Cc2cc(F)cc(F)c2)NC(=O)Cn2nc(C(F)F)c3c2C(F)(F)[C@@H]2C[C@H]32)ccc1F` [Compound 106C, 5-(6-((3,3-difluoro-1-hydroxycyclobutyl)ethynyl)-2-((S)-1-(2-((3bS,4aR)-3-(difluoromethyl)-5,5-difluoro-3b,4,4a,5-tetrahydro-1H-cyclopropa[3,4]cyclopenta[1,2-c]pyrazol-1-yl)acetamido)-2-(3,5-difluorophenyl)ethyl)pyridin-3-yl)-2-fluorobenzamide] has an inhibition at 0.2 µM (HIV-IIIb; [2]) of 100% and a CC50 at 5 days [1] of 2.85 µM.

Compound `CC(C)(C)OC(=O)N1CCCC1c1ncc(C#Cc2ccc(-c3ccc4c(c3)C(=O)NC4)c([C@H](Cc3cc(F)cc(F)c3)NC(=O)Cn3nc(C(F)(F)F)c4c3C(F)(F)[C@@H]3C[C@H]43)n2)[nH]1` (stereo partly drawn) [Compound 13C, tert-butyl 2-(5-((6-((S)-1-(2-((3bS,4aR)-5,5-difluoro-3-(trifluoromethyl)-3b,4,4a,5-tetrahydro-1H-cyclopropa[3,4]cyclopenta[1,2-c]pyrazol-1-yl)acetamido)-2-(3,5-difluorophenyl)ethyl)-5-(3-oxoisoindolin-5-yl)pyridin-2-yl)ethynyl)-1H-imidazol-2-yl)pyrrolidine-1-carboxylate] has an inhibition at 0.2 µM (HIV-IIIb; [2]) of 87% and a CC50 at 5 days [1] greater than 53.2 µM.

For `CC(=O)N1CCO[C@](C)(C#Cc2ccc(-c3ccc(Cl)c4c(NS(C)(=O)=O)nn(C)c34)c([C@H](Cc3cc(F)cc(F)c3)NC(=O)Cn3nc(C(F)F)c4c3C(F)(F)[C@@H]3C[C@H]43)n2)C1` [Compound 86, N—((S)-1-(6-(((R)-4-acetyl-2-methylmorpholin-2-yl)ethynyl)-3-(4-chloro-1-methyl-3-(methylsulfonamido)-1H-indazol-7-yl)pyridin-2-yl)-2-(3,5-difluorophenyl)ethyl)-2-((3bS,4aR)-3-(difluoromethyl)-5,5-difluoro-3b,4,4a,5-tetrahydro-1H-cyclopropa[3,4]cyclopenta[1,2-c]pyrazol-1-yl)acetamide], the inhibition at 0.2 µM (HIV-IIIb; Human immunodeficiency virus 1, IIIB, MT4, 120 h) was 93% and the CC50 at 5 days [1] was 21.4 µM.
